Results on twelve compounds are retold here after ChEMBL document CHEMBL3797116, “Modification on the O-glucoside of Sergliflozin-A: A new strategy for SGLT2 inhibitor design” (Bioorg Med Chem Lett, 2016).

One may read the logP as the decadic logarithm of the partition coefficient of the neutral form, usually between octanol and water.

Data set [1] in a line: (§1) Metabolic stability in rat liver homogenate assessed as compound hydrolysis at 10 uM after 8 hrs. Type of data set: ADME, tissue-based. The note with it: liver homogenate, read-out: Drug degradation.
Data set [2] relates to Rattus norvegicus. The experiment in a line: In vivo hypoglycemic activity in Sprague-Dawley rat assessed as urinary […] glucose level per 200g of animal body weight measured for 0 to 4 hrs at 5 mL/kg, po (reference value: 0.26 +/- 0.04 mg). Type of data set: functional, Urine.
Data set [3] has as its system Rattus norvegicus. The experiment in a line: In vivo hypoglycemic activity in Sprague-Dawley rat assessed as urinary […] glucose level per 200g of animal body weight measured for 12 to 24 hrs at 5 mL/kg, po (reference value: 1.45 +/- 0.28 mg). Type of data set: functional, Urine.
The subject of data set [4] is Rattus norvegicus. The experiment in a line: In vivo hypoglycemic activity in Sprague-Dawley rat assessed as urinary […] glucose level per 200g of animal body weight measured for 4 to 8 hrs at 5 mL/kg, po (reference value: 0.14 +/- 0.03 mg). Type of data set: functional, Urine.
In data set [5] the test system is Rattus norvegicus. The experiment in a line: In vivo hypoglycemic activity in Sprague-Dawley rat assessed as urinary […] glucose level per 200g of animal body weight measured for 8 to 12 hrs at 5 mL/kg, po (reference value: 0.21 +/- 0.01 mg). Type of data set: functional, Urine.
The test system of data set [6] is Rattus norvegicus. The experiment in a line: In vivo hypoglycemic activity in Sprague-Dawley rat assessed as urinary […] glucose level per 200g of animal body weight measured for 0 to 24 hrs at 5 mL/kg, po (reference value: 2.03 +/- 0.34 mg). Type of data set: functional, Urine.
A short description of data set [7]: Octanol-phosphate buffer saline partition coefficient, logP of the compound measured after 24 hrs by HPLC method. Type of data set: physicochemical.
Data set [8] concerns Rattus norvegicus. The experiment in a line: In vivo hypoglycemic activity in Sprague-Dawley rat assessed as reduction in urinary […] glucose level per 200g of animal body weight measured for 0 to 24 hrs at 5 mL/kg, po. Type of data set: functional, Urine. Also on record: scale not given: the % may be the effect or the level left.
In data set [9] the test system is Rattus norvegicus. The experiment in a line: In vivo hypoglycemic activity in Sprague-Dawley rat assessed as urinary […] glucose level per 200g of animal body weight measured for 6 to 24 hrs at 5 mL/kg, po. Type of data set: functional, Urine.
Data set [10] concerns Rattus norvegicus. The experiment in a line: In vivo hypoglycemic activity in Sprague-Dawley rat assessed as urinary […] glucose level per 200g of animal body weight measured for 0 to 6 hrs at 5 mL/kg, po. Type of data set: functional, Urine.
The next data set relates to Liver. The description is as §1. Type of data set: ADME, tissue-based. As to conditions: tissue homogenate, 8 h, 10 µM.

`Cc1cc(=O)oc2cc(O[C@@H]3O[C@H](CO)[C@@H](O)[C@H](O)[C@H]3O)ccc12`: in data set [1], the metabolised at 8 h, 10 µM is above 80%.

On to `COc1ccc(Cc2ccccc2O[C@@H]2O[C@H](CO)[C@@H](O)C[C@H]2O)cc1`, for which the Activity in the data set with Rattus norvegicus [2] is on record as 0.36 mg; with Rattus norvegicus [3], 0.44 mg; with Rattus norvegicus [4], 0.23 mg; in the data set with Rattus norvegicus [5] it was 0.21 mg; with Rattus norvegicus [6], 1.24 mg.

`COc1ccc(Cc2ccccc2O[C@@H]2O[C@H](CO)[C@@H](OC)[C@H](O)[C@H]2O)cc1` came in with a logP at 24 h in data set [7] of 1.83. Further, the Activity in the data set with Rattus norvegicus [2] is listed as 102.46 mg; in the data set with Rattus norvegicus [3], 0.78 mg; in the data set on Rattus norvegicus [8], 73%; in the data set on Rattus norvegicus [4] it was 58.68 mg; in the data set on Rattus norvegicus [5], 11.01 mg; in the data set on Rattus norvegicus [6], 172.94 mg.

Take `COc1ccc(Cc2ccccc2O[C@@H]2O[C@H](CO)[C@@H](O)[C@H](O)[C@H]2OC)cc1`: the Activity in the data set on Rattus norvegicus [2] is on record as 0.11 mg; with Rattus norvegicus [3], 0.11 mg; with Rattus norvegicus [4], 0.03 mg; with Rattus norvegicus [5], 0.02 mg; with Rattus norvegicus [6], 0.27 mg.

Turning to `COc1ccc(Cc2ccccc2O[C@@H]2O[C@H](CO)[C@@H](O)[C@H](O)[C@H]2F)cc1`, the Activity was 11 mg in the data set on Rattus norvegicus [9], 4.9 mg with Rattus norvegicus [10] and 16 mg with Rattus norvegicus [6].

For `COc1ccc(Cc2ccccc2O[C@@H]2O[C@H](CF)[C@@H](O)[C@H](O)[C@H]2O)cc1`, the Activity with Rattus norvegicus [2] was 2.34 mg; in the data set on Rattus norvegicus [3], 1.02 mg; in the data set with Rattus norvegicus [4] it was 1.03 mg; in the data set with Rattus norvegicus [5], 0.13 mg; in the data set on Rattus norvegicus [6], 4.52 mg.

Turning to `COC[C@H]1O[C@@H](Oc2ccccc2Cc2ccc(OC)cc2)[C@H](O)[C@@H](O)[C@@H]1O`, the Activity in the data set on Rattus norvegicus [2] came to 61.23 mg; in the data set on Rattus norvegicus [3], 0.76 mg; in the data set with Rattus norvegicus [8], 31%; in the data set on Rattus norvegicus [4], 4.11 mg; in the data set with Rattus norvegicus [5], 7.19 mg; in the data set with Rattus norvegicus [6], 73.29 mg.

Take `COc1ccc(Cc2ccccc2O[C@@H]2O[C@H](CO)[C@@H](O)[C@H](OC)[C@H]2O)cc1`: the Activity with Rattus norvegicus [2] is 13.67 mg; with Rattus norvegicus [3], 0.24 mg; in the data set on Rattus norvegicus [4] it was 4.11 mg; with Rattus norvegicus [5], 0.65 mg; in the data set on Rattus norvegicus [6] it was 18.67 mg.

For the compound `CO[C@H]1[C@H](O)[C@@H](O)[C@H](Oc2ccc3oc(=O)cc(C)c3c2)O[C@@H]1CO`, the Stability result in the data set on Liver is given as “Stable”.

`COc1ccc(Cc2ccccc2O[C@@H]2O[C@H](C)[C@@H](O)[C@H](O)[C@H]2O)cc1`: the Activity in the data set with Rattus norvegicus [2] turned out to be 33.36 mg; with Rattus norvegicus [3], 0.8 mg; with Rattus norvegicus [4], 0.69 mg; in the data set with Rattus norvegicus [5], 0.07 mg; with Rattus norvegicus [6] it was 34.91 mg.

`COc1ccc(Cc2ccccc2O[C@@H]2O[C@H](CO)C[C@H](O)[C@H]2O)cc1`: the Activity in the data set with Rattus norvegicus [2] was found to be 8.21 mg; in the data set on Rattus norvegicus [3] it was 1.73 mg; in the data set on Rattus norvegicus [4], 0.68 mg; with Rattus norvegicus [5] it was 0.42 mg; with Rattus norvegicus [6], 11.05 mg.

In [7], `COc1ccc(Cc2ccccc2O[C@@H]2O[C@H](CO)[C@@H](O)[C@H](O)[C@H]2O)cc1` [SERGLIFLOZIN A] registered a logP at 24 h of 1.32. In addition, the Activity in the data set with Rattus norvegicus [2] worked out at 126.99 mg; in the data set on Rattus norvegicus [3], 39.44 mg; with Rattus norvegicus [4], 34.8 mg; with Rattus norvegicus [5], 33.8 mg; in the data set with Rattus norvegicus [6] it was 235.03 mg.
